According to patent publication US5849729A, “Use of hydrolyzed cocoa butter for percutaneous absorption” (Hershey Foods Corporation, priority 1995, dated 1998):
Where “and” joins values, the source holds several entries; their conditions need not be identical. Equal entries are not always repeated.

Legend:
[1] = In-vitro percutaneous absorption of retinoic acid and triamcinolone acetonide from two cocoa butter vehicles (Franz cells, 48 h); conditions: for % Abs (% Absorbed) / % Absorbed / total absorption: percent of applied dose
Text: The objective of this study was to measure the permeation of retinoic acid and triamcinolone acetonide through human skin in-vitro from two cocoa butter vehicles.
Two cocoa butter vehicles supplied by Hershey Foods Corporation were utilized: (1) pure cocoa butter and (2) partially hydrolyzed cocoa butter emulsion. Radioactive [11,12-^3 H] [retinoic acid (NET 920, Lot 2930-067, specific activity 1 mCi/ml) and [6,7-^3 H]-triamcinolone acetonide (NET 470, Lot 2904-170, specific activity 1 mCi/ml) were obtained from Dupont-New England Nuclear Corporation, Boston, Mass.
Each of the two cocoa butter vehicles was spiked separately with ^3 H-retinoic acid and ^3 H-Triamcinolone acetonide to give a total of four radioactive formulations for study. This was done by adding 25 μl (containing 25 μCi) of each tracer solution to approximately 1 gram of each vehicle and mixing with the tip of the dispensing micropipette. The pure cocoa butter vehicle was liquified by holding it under warm tap water prior to spiking. This was not done with the partially hydrolyzed cocoa butter emulsion. Neither formulation was used for three days after spiking to allow for diffusional mixing to take place. Final radioactive concentrations of each formulation were: […]
Human trunk skin without obvious signs of disease was used throughout. It was obtained within 24 hours of death, dermatomed to a thickness of approximately 0.25 mm, cryopreserved and sealed in water vapor-impermeableplastic bags. It was stored at -70° C. until the day of use then thawed by placing the bag in 37° C. water.
Skin from a single donor was cut into multiple sections large enough to fit on 0.8 cm^2 Franz cells. The dermal chamber was filled with isotonic saline, pH 7.4, into which a small magnetic stirring bar was placed. The epidermal chamber was left open to the ambient laboratory environment, approximately 22° C. and 40-60% RH. The cells were placed in a diffusion apparatus in which the dermal receptor solution was stirred magnetically at 600 RPM and its temperature maintained at 37° C.
To assure the integrity of each skin section, its permeability to tritiated water was determined before application of the test formulations. Following a brief (0.5-1 hour) equilibration period, 150 μl ^3 H2 O (specific activity 0.3 μCi/ml) was layered across the top of the skin section so that the entire exposed surface was covered. After 5 minutes the aqueous layer was removed and the surface of the skin carefully blotted dry. At t=0.5 hour the saline receptor phase was removed and analyzed for radioactive content by liquid scintillation counting. Skin specimens in which absorption of ^3 H2 O was less than 1.25 μl were considered acceptable.
Subsequently, each test formulation was applied at a target dose of 10 mg (cream) or 10 μl (butter). The cream formulation (partially hydrolyzed cocoa butter emulsion) was applied from the smooth, rounded-tip of a glass rod, the exact amount determined by weighing the rod before and after application. The butter formulation (pure cocoa butter) was first liquified under warm tap water, allowed to cool to room temperature, then applied with a 10 μl positive displacement micropipette prior to resolidifying. At 4, 8, 12, 24, 36 and 48 hours the receptor solution was removed in its entirety, replaced with fresh solution, and a 1 ml aliquot taken and assayed for radioactive content by liquid scintillation counting.
A 1 ml aliquot of each receptor sample containing ^3 H2 O, ^3 H-retinoic acid, or ^3 H-triamcinolone acetonide was placed in a 7 ml glass scintillation vial and gelled by the addition of 5 ml Opti-Fluor (Packard Instrument Co., Meriden, Conn.). These were counted in a Packard Tri-Carb Model 1900CA Liquid scintillation Analyzer equipped with internal standard and automatic quench correction.

[2] = currently available / commercial formulations, trunk skin; cited from earlier work
[3] = cream (partially hydrolyzed cocoa butter emulsion), 48 h, individual skin sections
[4] = cream, 48 h, average of three donors
[5] = cream, 48 h, average per skin donor (n=4), listed as RETINOIC ACID
[6] = cream, 48 h, average per skin donor (n=4), listed as Retinoic Acid

CC1=C(/C=C/C(C)=C/C=C/C(C)=C/C(=O)O)C(C)(C)CCC1 [retinoic acid]
Penet (Total Penetration) [1, 3]: 824.73 and 721.36 and 745.68 and 808.17 and 1027.61 and 945.49 and 550.30 and 524.77 and 919.75 and 670.20 and 859.80 and 1068.35
% Abs (% Absorbed) [1, 3]: 14.03% and 14.76% and 13.59% and 17.11% and 17.20% and 15.81% and 13.56% and 15.67% and 21.00% and 18.37% and 18.57% and 20.67%
Rate of absorption, R1 ([1]; cream (partially hydrolyzed cocoa butter emulsion), sample R1, mid-t 2 h, individual skin sections): 40.91 ng/cm^2 /hr and 36.94 ng/cm^2 /hr and 38.12 ng/cm^2 /hr and 45.28 ng/cm^2 /hr and 74.50 ng/cm^2 /hr and 68.54 ng/cm^2 /hr and 46.23 ng/cm^2 /hr and 49.65 ng/cm^2 /hr and 16.18 ng/cm^2 /hr and 50.09 ng/cm^2 /hr and 69.86 ng/cm^2 /hr and 77.41 ng/cm^2 /hr
Rate of absorption, R3 ([1]; cream (partially hydrolyzed cocoa butter emulsion), sample R3, mid-t 10 h, individual skin sections): 23.20 ng/cm^2 /hr and 19.99 ng/cm^2 /hr and 20.80 ng/cm^2 /hr and 24.15 ng/cm^2 /hr and 28.97 ng/cm^2 /hr and 25.18 ng/cm^2 /hr and 16.74 ng/cm^2 /hr and 15.77 ng/cm^2 /hr and 27.41 ng/cm^2 /hr and 19.26 ng/cm^2 /hr and 26.16 ng/cm^2 /hr and 30.74 ng/cm^2 /hr
Rate of absorption, R4 ([1]; cream (partially hydrolyzed cocoa butter emulsion), sample R4, mid-t 18 h, individual skin sections): 17.83 ng/cm^2 /hr and 16.44 ng/cm^2 /hr and 14.68 ng/cm^2 /hr and 15.42 ng/cm^2 /hr and 27.53 ng/cm^2 /hr and 24.05 ng/cm^2 /hr and 12.20 ng/cm^2 /hr and 11.56 ng/cm^2 /hr and 26.23 ng/cm^2 /hr and 18.49 ng/cm^2 /hr and 25.34 ng/cm^2 /hr and 30.20 ng/cm^2 /hr
Rate of absorption, R5 ([1]; cream (partially hydrolyzed cocoa butter emulsion), sample R5, mid-t 30 h, individual skin sections): 14.89 ng/cm^2 /hr and 15.68 ng/cm^2 /hr and 17.30 ng/cm^2 /hr and 17.77 ng/cm^2 /hr and 15.95 ng/cm^2 /hr and 14.81 ng/cm^2 /hr and 8.32 ng/cm^2 /hr and 7.95 ng/cm^2 /hr and 15.24 ng/cm^2 /hr and 11.88 ng/cm^2 /hr and 12.50 ng/cm^2 /hr and 19.16 ng/cm^2 /hr
Rate of absorption, R6 ([1]; cream (partially hydrolyzed cocoa butter emulsion), sample R6, mid-t 42 h, individual skin sections): 20.33 ng/cm^2 /hr and 14.24 ng/cm^2 /hr and 14.46 ng/cm^2 /hr and 17.62 ng/cm^2 /hr and 16.38 ng/cm^2 /hr and 15.16 ng/cm^2 /hr and 8.78 ng/cm^2 /hr and 7.68 ng/cm^2 /hr and 13.21 ng/cm^2 /hr and 9.49 ng/cm^2 /hr and 10.20 ng/cm^2 /hr and 14.22 ng/cm^2 /hr
Total Penetration [1, 4]: 805.52
Penet (Total Penetration) [1, 5]: 774.99 and 762.04 and 879.52
Penet (Total Penetration) [1, 6]: 879.52 and 762.04 and 774.99
Rate of absorption, R1 ([1]; cream, R1, mid-t 2 h, average of three donors): 55.06 ng/cm^2 /hr
Rate of absorption, R1 ([1]; cream, R1, mid-t 2 h, average per skin donor (n=4), listed as RETINOIC ACID): 40.32 ng/cm^2 /hr and 59.73 ng/cm^2 /hr and 65.14 ng/cm^2 /hr
Rate of absorption, R1 ([1]; cream, R1, mid-t 2 h, average per skin donor (n=4), listed as Retinoic Acid): 65.14 ng/cm^2 /hr and 59.73 ng/cm^2 /hr and 40.32 ng/cm^2 /hr
Rate of absorption, R3 ([1]; cream, R3, mid-t 10 h, average of three donors): 23.20 ng/cm^2 /hr
Rate of absorption, R3 ([1]; cream, R3, mid-t 10 h, average per skin donor (n=4), listed as RETINOIC ACID): 22.04 ng/cm^2 /hr and 21.67 ng/cm^2 /hr and 25.89 ng/cm^2 /hr
Rate of absorption, R3 ([1]; cream, R3, mid-t 10 h, average per skin donor (n=4), listed as Retinoic Acid): 25.89 ng/cm^2 /hr and 21.67 ng/cm^2 /hr and 22.04 ng/cm^2 /hr
Rate of absorption, R4 ([1]; cream, R4, mid-t 18 h, average of three donors): 20.00 ng/cm^2 /hr
Rate of absorption, R4 ([1]; cream, R4, mid-t 18 h, average per skin donor (n=4), listed as RETINOIC ACID): 16.09 ng/cm^2 /hr and 18.83 ng/cm^2 /hr and 25.07 ng/cm^2 /hr
Rate of absorption, R4 ([1]; cream, R4, mid-t 18 h, average per skin donor (n=4), listed as Retinoic Acid): 25.07 ng/cm^2 /hr and 18.83 ng/cm^2 /hr and 16.09 ng/cm^2 /hr
Rate of absorption, R5 ([1]; cream, R5, mid-t 30 h, average of three donors): 14.29 ng/cm^2 /hr
Rate of absorption, R5 ([1]; cream, R5, mid-t 30 h, average per skin donor (n=4), listed as RETINOIC ACID): 16.41 ng/cm^2 /hr and 11.76 ng/cm^2 /hr and 14.70 ng/cm^2 /hr
Rate of absorption, R5 ([1]; cream, R5, mid-t 30 h, average per skin donor (n=4), listed as Retinoic Acid): 14.70 ng/cm^2 /hr and 11.76 ng/cm^2 /hr and 16.41 ng/cm^2 /hr
Rate of absorption, R6 ([1]; cream, R6, mid-t 42 h, average of three donors): 13.47 ng/cm^2 /hr
Rate of absorption, R6 ([1]; cream, R6, mid-t 42 h, average per skin donor (n=4), listed as RETINOIC ACID): 16.62 ng/cm^2 /hr and 12.00 ng/cm^2 /hr and 11.78 ng/cm^2 /hr
Rate of absorption, R6 ([1]; cream, R6, mid-t 42 h, average per skin donor (n=4), listed as Retinoic Acid): 11.78 ng/cm^2 /hr and 12.00 ng/cm^2 /hr and 16.62 ng/cm^2 /hr
% Absorbed / total absorption [1, 4]: 16.7%
% Absorbed / total absorption ([1]; cream, 48 h, average of three donors, listed as Retinoic Acid): 16.69%
% Abs (% Absorbed) [1, 5]: 14.87% and 15.56% and 19.65%
% Abs (% Absorbed) [1, 6]: 19.65% and 15.56% and 14.87%
difference between partially hydrolyzed cocoa butter emulsion and pure cocoa butter as delivery vehicle ([1]; in words): no appreciable difference
average absorption ([1]; with cocoa butter and partially hydrolyzed cocoa butter emulsion (both vehicles)): 16.5%
total absorption from currently available formulations [2]: 1-5 % of the dose
